Experiments:
Assay in all cases: Large panel kinase profiling
Format in all cases: biochemical
Details in all cases: 1 μM test article, 1 mM ATP
PDK1 = target: T1, PDK1 (Homo sapiens, UniProt O15530)
T1 sequence (O15530 1-556): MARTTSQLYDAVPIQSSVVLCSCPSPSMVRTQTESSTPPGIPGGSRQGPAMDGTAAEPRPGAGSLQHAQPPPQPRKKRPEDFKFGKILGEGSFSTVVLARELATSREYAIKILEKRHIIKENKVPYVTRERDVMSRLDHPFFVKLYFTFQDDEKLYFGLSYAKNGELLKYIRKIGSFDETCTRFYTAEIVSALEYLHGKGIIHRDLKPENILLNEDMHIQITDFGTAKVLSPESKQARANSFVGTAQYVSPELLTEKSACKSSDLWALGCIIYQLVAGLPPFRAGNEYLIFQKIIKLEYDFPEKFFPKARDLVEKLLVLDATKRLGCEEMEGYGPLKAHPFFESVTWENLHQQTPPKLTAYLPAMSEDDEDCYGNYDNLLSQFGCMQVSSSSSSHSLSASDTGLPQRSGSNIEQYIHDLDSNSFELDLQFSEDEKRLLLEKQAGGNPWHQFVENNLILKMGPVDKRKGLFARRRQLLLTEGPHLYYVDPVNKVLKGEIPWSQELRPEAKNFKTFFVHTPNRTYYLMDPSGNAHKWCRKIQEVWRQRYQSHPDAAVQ
Method in brief: (§1)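 At 30° C., kinases turned over a CSox-Sensor peptide substrate with 1 mM ATP while 1 μM test article was present. Progress was followed by kinetic fluorescence readings.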

FRK = target: T2, FRK (Homo sapiens, UniProt P42685)
T2 construct: AssayQuant Technologies, Inc. (service provider)
Method in brief: as §1

PRKG1 = target: T3, PRKG1 (Homo sapiens, UniProt Q13976)
T3 sequence (Q13976 1-671): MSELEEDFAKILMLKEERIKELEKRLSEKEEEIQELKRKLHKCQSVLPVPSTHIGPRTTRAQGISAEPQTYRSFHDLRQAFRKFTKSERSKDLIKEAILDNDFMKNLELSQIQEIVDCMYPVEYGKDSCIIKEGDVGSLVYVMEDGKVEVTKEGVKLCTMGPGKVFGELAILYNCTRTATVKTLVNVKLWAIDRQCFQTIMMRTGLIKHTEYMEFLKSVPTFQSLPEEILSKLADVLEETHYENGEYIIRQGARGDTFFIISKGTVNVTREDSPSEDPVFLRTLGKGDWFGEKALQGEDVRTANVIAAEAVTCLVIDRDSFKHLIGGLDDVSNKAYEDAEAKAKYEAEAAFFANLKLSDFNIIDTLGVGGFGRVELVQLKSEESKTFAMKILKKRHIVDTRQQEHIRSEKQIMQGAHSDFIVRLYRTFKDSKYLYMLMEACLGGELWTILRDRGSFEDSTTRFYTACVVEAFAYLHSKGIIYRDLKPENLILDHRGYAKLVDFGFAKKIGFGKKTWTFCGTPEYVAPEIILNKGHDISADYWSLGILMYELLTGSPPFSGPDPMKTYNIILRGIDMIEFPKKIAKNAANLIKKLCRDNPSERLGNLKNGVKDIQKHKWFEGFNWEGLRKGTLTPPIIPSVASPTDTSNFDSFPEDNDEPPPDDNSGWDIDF
Method in brief: as §1

NUAK1 = target: T4, NUAK1 (Homo sapiens, UniProt O60285)
T4 sequence (O60285 1-661): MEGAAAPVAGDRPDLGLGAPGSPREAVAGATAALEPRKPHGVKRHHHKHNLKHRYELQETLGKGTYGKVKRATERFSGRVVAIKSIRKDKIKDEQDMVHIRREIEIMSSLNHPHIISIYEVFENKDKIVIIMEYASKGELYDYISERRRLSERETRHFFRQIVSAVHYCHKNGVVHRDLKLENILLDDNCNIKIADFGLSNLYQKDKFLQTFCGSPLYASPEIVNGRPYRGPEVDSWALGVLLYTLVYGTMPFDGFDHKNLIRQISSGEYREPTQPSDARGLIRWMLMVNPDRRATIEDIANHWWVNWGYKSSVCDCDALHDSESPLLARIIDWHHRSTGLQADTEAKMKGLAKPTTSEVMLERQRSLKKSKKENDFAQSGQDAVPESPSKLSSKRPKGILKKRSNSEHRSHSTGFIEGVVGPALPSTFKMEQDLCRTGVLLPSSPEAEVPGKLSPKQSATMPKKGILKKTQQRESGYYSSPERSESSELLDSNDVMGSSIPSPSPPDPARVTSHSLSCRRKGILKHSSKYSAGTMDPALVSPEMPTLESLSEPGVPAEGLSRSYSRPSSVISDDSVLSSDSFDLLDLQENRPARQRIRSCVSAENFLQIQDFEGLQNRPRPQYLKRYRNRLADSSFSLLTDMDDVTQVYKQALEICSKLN
Method in brief: as §1

RPS6KA5/MSK1 = target: T5, RPS6KA5/MSK1 (Homo sapiens, UniProt O75582)
T5 construct: AssayQuant Technologies, Inc. (contract assay)
Method in brief: as §1

T5 sequence (O75582 whole entry): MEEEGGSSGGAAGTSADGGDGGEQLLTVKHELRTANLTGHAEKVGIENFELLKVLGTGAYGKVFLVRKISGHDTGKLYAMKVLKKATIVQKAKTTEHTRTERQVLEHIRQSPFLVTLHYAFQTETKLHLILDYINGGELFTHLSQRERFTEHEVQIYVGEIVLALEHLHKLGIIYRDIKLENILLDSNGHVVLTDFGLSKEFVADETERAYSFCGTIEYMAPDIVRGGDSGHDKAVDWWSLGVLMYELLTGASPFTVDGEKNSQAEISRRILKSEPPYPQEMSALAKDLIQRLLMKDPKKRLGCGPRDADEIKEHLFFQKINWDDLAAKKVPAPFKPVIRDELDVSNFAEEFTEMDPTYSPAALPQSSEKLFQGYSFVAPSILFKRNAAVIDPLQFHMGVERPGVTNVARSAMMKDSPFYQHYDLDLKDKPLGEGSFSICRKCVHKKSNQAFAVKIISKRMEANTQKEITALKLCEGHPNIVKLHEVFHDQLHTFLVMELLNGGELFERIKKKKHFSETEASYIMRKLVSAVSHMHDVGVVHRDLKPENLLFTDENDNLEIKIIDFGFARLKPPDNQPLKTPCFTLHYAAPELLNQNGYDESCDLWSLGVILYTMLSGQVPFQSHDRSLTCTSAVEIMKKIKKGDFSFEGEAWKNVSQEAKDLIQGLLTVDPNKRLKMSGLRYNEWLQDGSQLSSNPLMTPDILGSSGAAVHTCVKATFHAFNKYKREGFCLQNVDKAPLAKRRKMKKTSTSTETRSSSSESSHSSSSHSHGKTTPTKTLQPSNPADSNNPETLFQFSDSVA
T2 sequence (P42685 whole entry, species assumed): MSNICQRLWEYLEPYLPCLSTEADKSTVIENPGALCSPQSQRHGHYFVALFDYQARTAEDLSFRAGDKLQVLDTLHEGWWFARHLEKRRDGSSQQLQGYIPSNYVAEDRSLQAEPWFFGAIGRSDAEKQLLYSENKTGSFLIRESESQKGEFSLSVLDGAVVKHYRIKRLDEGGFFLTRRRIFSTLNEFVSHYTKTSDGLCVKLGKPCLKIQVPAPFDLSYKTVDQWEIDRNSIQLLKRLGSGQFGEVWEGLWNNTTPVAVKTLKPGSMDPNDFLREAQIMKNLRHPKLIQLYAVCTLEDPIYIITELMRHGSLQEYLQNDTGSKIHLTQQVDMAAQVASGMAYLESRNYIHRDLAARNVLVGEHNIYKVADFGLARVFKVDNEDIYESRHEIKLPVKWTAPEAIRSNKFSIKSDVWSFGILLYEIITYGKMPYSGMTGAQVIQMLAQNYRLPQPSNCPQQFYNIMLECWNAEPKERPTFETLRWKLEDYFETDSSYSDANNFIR

Which results are given for `C=CC(=O)N1CCCC(c2c(F)cc(C(N)=O)c3[nH]c4c(c23)CCCCC4)C1` (single isomer, unassigned) [Compound 5-6]?
inhibition at 1 µM (PDK1): 22.8%; inhibition at 1 µM (FRK): 4.2%; inhibition at 1 µM (PRKG1): -2.8%; inhibition at 1 µM (NUAK1): 3.8%; inhibition at 1 µM (RPS6KA5/MSK1): -20.7%

What does the source list for `C=CC(=O)N1CCC[C@@H](c2c(F)cc(C(N)=O)c3[nH]c4c(c23)CC2(CC4)CC2)C1` [Compound 6-2, (S)-5-(1-acryloylpiperidin-3-yl)-6-fluoro-1,2,4,9-tetrahydrospiro[carbazole-3,1′-cyclopropane]-8-carboxamide]?
inhibition at 1 µM (PDK1): -7.8%; inhibition at 1 µM (FRK): -2.8%; inhibition at 1 µM (PRKG1): 0%; inhibition at 1 µM (NUAK1): 13.2%; inhibition at 1 µM (RPS6KA5/MSK1): -4.2%

For `C=CC(=O)N1CCC[C@@H](c2c(F)cc(C(N)=O)c3[nH]c4c(c23)CCC4)C1` [Compound 10-2, (S)-8-(1-acryloylpiperidin-3-yl)-7-fluoro-1,2,3,4-tetrahydrocyclo-penta[b]indole-5-carboxamide], which inhibition at 1 µM (PDK1) is on record?
Its inhibition at 1 µM is -28.3%.

What about the inhibition at 1 µM (FRK) of the same compound?
Its inhibition at 1 µM is -4.1%.

What about the inhibition at 1 µM (PRKG1) of the same compound?
Its inhibition at 1 µM is -5.8%.

What about the inhibition at 1 µM (NUAK1) of the same compound?
Its inhibition at 1 µM is -9.3%.

What about the inhibition at 1 µM (RPS6KA5/MSK1) of the same compound?
The inhibition at 1 µM was -14.5%.

Reference: patent US20220009920A1 (GB005, Inc., priority 2020, published 2022)
